Assay results reported in ChEMBL document CHEMBL3352042, “Synthesis of novel benzimidazole functionalized chiral thioureas and evaluation of their antibacterial and anticancer activities” (Bioorg Med Chem Lett, 2014).
pIC50: −log10 of the molar value. In brackets after ≈: the same amount, converted by molar mass. Activity calls are given as the source filed them. The rule behind the calls is not given here.

What was measured:
Pseudomonas aeruginosa = assay: Antibacterial activity against Pseudomonas aeruginosa MTCC 2453 after 24 hrs by well diffusion method; type: functional
Raoultella planticola = assay: Antibacterial activity against Klebsiella planticola MTCC 530 after 24 hrs by well diffusion method; type: functional
HeLa = assay: Cytotoxicity against human HeLa cells by MTT assay; type: functional, cell-based; settings: for pIC50: Homo sapiens, HeLa, read-out: IC50; for IC50: hela
Staphylococcus aureus [1] = assay: Antibacterial activity against Staphylococcus aureus MLS16 MTCC 2940 after 24 hrs by well diffusion method; type: functional
Bacillus subtilis = assay: Antibacterial activity against Bacillus subtilis MTCC 121 after 24 hrs by well diffusion method; type: functional
Staphylococcus aureus [2] = assay: Antibacterial activity against Staphylococcus aureus MTCC 96 after 24 hrs by well diffusion method; type: functional
DU-145 = assay: Cytotoxicity against human DU145 cells by MTT assay; type: functional, cell-based; settings: for pIC50: Homo sapiens, DU-145, read-out: IC50; for IC50: du-145
Micrococcus luteus = assay: Antibacterial activity against Micrococcus luteus MTC 2470 after 24 hrs by well diffusion method; type: functional
A549 = assay: Cytotoxicity against human A549 cells by MTT assay; type: functional, cell-based; settings: for pIC50: Homo sapiens, A549, read-out: IC50
MCF7 = assay: Cytotoxicity against human MCF7 cells by MTT assay; type: functional, cell-based; settings: for pIC50: Homo sapiens, MCF7, read-out: IC50; for IC50: mcf7
Escherichia coli = assay: Antibacterial activity against Escherichia coli MTCC 739 after 24 hrs by well diffusion method; type: functional

SMILES	MIC (Pseudomonas aeruginosa)	MIC (Raoultella planticola)	pIC50 (HeLa)	MIC (Staphylococcus aureus [1])	MIC (Bacillus subtilis)	MIC (Staphylococcus aureus [2])	pIC50 (DU-145)	MIC (Micrococcus luteus)	pIC50 (A549)	pIC50 (MCF7)	MIC (Escherichia coli)	MIC (Pseudomonas aeruginosa; MTCC 2453, 24 h) [µg/mL]	MIC (Raoultella planticola; MTCC 530, 24 h) [µg/mL]	MIC (Staphylococcus aureus [1]; MLS16 MTCC 2940, 24 h) [µg/mL]	MIC (Bacillus subtilis; MTCC 121, 24 h) [µg/mL]	MIC (Staphylococcus aureus [2]; MTCC 96, 24 h) [µg/mL]	MIC (Micrococcus luteus; MTC 2470, 24 h) [µg/mL]	MIC (Escherichia coli; MTCC 739, 24 h) [µg/mL]	also measured
S=C(Nc1ccccc1)N[C@H](Cc1ccccc1)c1nc2ccccc2[nH]1	inactive	inactive	4.98	inactive	inactive	inactive	4.74	inactive	4.79	5.03	inactive	–	–	–	–	–	–	–	–
S=C(Nc1ccccc1)N[C@@H](Cc1ccccc1)c1nc2ccccc2[nH]1	–	–	–	–	–	–	–	–	–	–	–	> 200	> 200	> 200	> 200	25 (≈ 67.1 µM)	> 200	12.5 (≈ 33.6 µM)	IC50 (HeLa): Not Active; IC50 (DU-145): Not Active; IC50 (A549; a549): Not Active; IC50 (MCF7): Not Active
CC(C)[C@@H](NC(=S)NCc1ccccc1)c1nc2ccccc2[nH]1	inactive	inactive	4.91	inactive	inactive	inactive	4.76	inactive	4.95	4.95	inactive	–	–	–	–	–	–	–	–
CC(C)[C@@H](NC(=S)Nc1ccccc1)c1nc2ccccc2[nH]1	inactive	inactive	–	inactive	inactive	inactive	4.46	inactive	4.50	–	inactive	–	–	–	–	–	–	–	IC50 (HeLa): Not Active; IC50 (MCF7): Not Active
FC(F)(F)c1cc(NC(=S)N[C@@H](Cc2ccccc2)c2nc3ccccc3[nH]2)cc(C(F)(F)F)c1	–	–	4.74	–	–	–	4.69	–	4.72	4.72	–	> 200	> 200	> 200	> 200	12.5 (≈ 24.6 µM)	> 200	12.5 (≈ 24.6 µM)	–
CC(C)[C@H](NC(=S)Nc1cc(C(F)(F)F)cc(C(F)(F)F)c1)c1nc2ccccc2[nH]1	–	–	4.54	–	–	–	4.58	–	4.60	4.61	–	6.25 (≈ 13.6 µM)	25 (≈ 54.3 µM)	12.5 (≈ 27.1 µM)	12.5 (≈ 27.1 µM)	25 (≈ 54.3 µM)	25 (≈ 54.3 µM)	12.5 (≈ 27.1 µM)	–
CC(C)C[C@H](NC(=S)Nc1cc(C(F)(F)F)cc(C(F)(F)F)c1)c1nc2ccccc2[nH]1	–	–	4.74	–	–	–	4.76	–	4.76	4.79	–	25 (≈ 52.7 µM)	12.5 (≈ 26.3 µM)	12.5 (≈ 26.3 µM)	12.5 (≈ 26.3 µM)	25 (≈ 52.7 µM)	6.25 (≈ 13.2 µM)	12.5 (≈ 26.3 µM)	–
CC(C)C[C@@H](NC(=S)NCc1ccccc1)c1nc2ccccc2[nH]1	inactive	inactive	4.67	inactive	inactive	inactive	4.67	inactive	4.65	4.74	inactive	–	–	–	–	–	–	–	–
C[C@@H](NC(=S)Nc1cc(C(F)(F)F)cc(C(F)(F)F)c1)c1nc2ccccc2[nH]1	inactive	inactive	4.79	inactive	inactive	inactive	4.75	inactive	4.82	4.99	inactive	–	–	–	–	–	–	–	–
C[C@H](NC(=S)Nc1cc(C(F)(F)F)cc(C(F)(F)F)c1)c1nc2ccccc2[nH]1	–	–	3.88	–	–	–	3.81	–	3.66	3.73	–	> 200	> 200	12.5 (≈ 28.9 µM)	25 (≈ 57.8 µM)	12.5 (≈ 28.9 µM)	25 (≈ 57.8 µM)	> 200	–
FC(F)(F)c1cc(NC(=S)N[C@H](Cc2ccccc2)c2nc3ccccc3[nH]2)cc(C(F)(F)F)c1	inactive	inactive	4.88	inactive	inactive	inactive	4.76	inactive	4.80	4.92	inactive	–	–	–	–	–	–	–	–
C[C@H](NC(=S)Nc1ccccc1)c1nc2ccccc2[nH]1	–	–	–	–	–	–	–	–	3.73	3.71	–	> 200	> 200	> 200	12.5 (≈ 42.2 µM)	12.5 (≈ 42.2 µM)	> 200	> 200	IC50 (HeLa): Not Active; IC50 (DU-145): Not Active
CC(C)[C@H](NC(=S)Nc1ccccc1)c1nc2ccccc2[nH]1	–	–	4.95	–	–	–	4.91	–	5.28	5.01	–	> 200	> 200	> 200	> 200	> 200	> 200	> 200	–
CC(C)[C@@H](NC(=S)Nc1cc(C(F)(F)F)cc(C(F)(F)F)c1)c1nc2ccccc2[nH]1	inactive	inactive	4.79	inactive	inactive	inactive	4.69	inactive	4.65	4.79	inactive	–	–	–	–	–	–	–	–
C[C@@H](NC(=S)NCc1ccccc1)c1nc2ccccc2[nH]1	inactive	inactive	–	inactive	inactive	inactive	4.54	inactive	4.73	4.84	inactive	–	–	–	–	–	–	–	IC50 (HeLa): Not Active
